Like-named read-outs stand apart in the source and are kept apart here.
Columns and labels:
[1] = Single-dose pharmacokinetics in healthy volunteers under fasting and fed (high-fat breakfast) conditions, plasma concentrations by HPLC-MS, non-compartmental analysis; format: in vivo, human; design: Ke: unit not given here
Source text: The bioequivalence clinical trials were phase I, randomized, open-label, crossover, single-centre, with two periods separated by a 7-day washout stage. Subjects were randomised to one of the two treatment sequences, RT or TR where R was the reference formulation and T was the test formulation. Each of the clinical trial was crossover for evaluation of a test formulation compared to a reference formulation either under fed or fasting conditions. […] The treatments were allocated in a balanced manner on every inclusion day (blocks of 4 subjects). Our study adheres to CONSORT guidelines. […] Sample processing, genotyping for CYP2C19 and drug quantification were performed according to Román et al. […] Pharmacokinetic parameters were estimated from the plasma concentration–time data by non-compartmental analysis (WinNonlin Professional, version 2.0., Pharsight Corporation, USA) as reported by Román et al. […] WinNonLin Professional software version 2.0 was used for the statistical analysis. Pharmacokinetic parameters were log-transformed, and AUC and Cmax were adjusted for dose and weight. The values of pharmacokinetic parameters were expressed as mean ± standard deviation.

[2] = review; ref [26] Swan et al.; cited from earlier work
[3] = Fed (high-fat breakfast), all subjects, single oral dose, mean ± SD
[4] = both sexes, human, plasma, oral, only CYP2C19*1/*1 subjects, Fast, men and women, mean ± SD
[5] = both sexes, human, plasma, oral, only CYP2C19*1/*1 subjects, Fed, men and women, mean ± SD
[6] = both sexes, human, plasma, po, Fast, all subjects, single oral dose, mean ± SD
[7] = both sexes, human, plasma, po, Fed (high-fat breakfast), all subjects, single oral dose, mean ± SD
[8] = female, human, plasma, oral, only CYP2C19*1/*1 subjects, Fast, women, mean ± SD
[9] = female, human, plasma, oral, only CYP2C19*1/*1 subjects, Fed, women, mean ± SD
[10] = female, human, plasma, po, Fast, women, single oral dose, mean ± SD
[11] = female, human, plasma, po, Fed, women, single oral dose, mean ± SD
[12] = male, human, plasma, oral, only CYP2C19*1/*1 subjects, Fast, men, mean ± SD
[13] = male, human, plasma, oral, only CYP2C19*1/*1 subjects, Fed, men, mean ± SD
[14] = male, human, plasma, po, Fast, men, single oral dose, mean ± SD
[15] = male, human, plasma, po, Fed, men, single oral dose, mean ± SD

Ke ([1]; Fast, all subjects, single oral dose, mean ± SD): 0.60 ± 0.20
Ke ([1]; Fast, men, single oral dose, mean ± SD): 0.64 ± 0.20
Ke ([1]; Fast, women, single oral dose, mean ± SD): 0.56 ± 0.20
Cmax [1, 3]: 675.8 ± 218.8 ng/mL
Ke [1, 3]: 0.42 ± 0.22
Ke ([1]; Fed, men, single oral dose, mean ± SD): 0.38 ± 0.17
Ke ([1]; Fed, women, single oral dose, mean ± SD): 0.48 ± 0.27
AUC(0-inf) [1, 4]: 901 ± 235 ng·h/mL
CL/F [1, 4]: 6.17 mL/min/kg
Vd/F [1, 4]: 0.6 ± 0.11 L/kg
half-life [1, 4]: 1.3 ± 0.6 h
Cmax ([1]; both sexes, human, plasma, oral, only CYP2C19*1/*1 subjects, Fast, men and women, mean ± SD, read-out: Cmax): 536 ± 138 ng/mL
Tmax ([1]; both sexes, human, plasma, oral, only CYP2C19*1/*1 subjects, Fast, men and women, mean ± SD, read-out: Tmax): 3.9 ± 0.8 h
AUC(0-inf) [1, 5]: 969 ± 388 ng·h/mL
CL/F [1, 5]: 6.33 mL/min/kg
Vd/F [1, 5]: 0.92 ± 0.34 L/kg
half-life [1, 5]: 2 ± 0.9 h
Cmax ([1]; both sexes, human, plasma, oral, only CYP2C19*1/*1 subjects, Fed, men and women, mean ± SD, read-out: Cmax): 606 ± 207 ng/mL
Tmax ([1]; both sexes, human, plasma, oral, only CYP2C19*1/*1 subjects, Fed, men and women, mean ± SD, read-out: Tmax): 9.1 ± 3.3 h
Tmax ([1]; both sexes, human, plasma, oral, under fasting conditions, range among subjects, read-out: Tmax range): 2 to 7 h
Tmax ([1]; both sexes, human, plasma, oral, under fed conditions, range among subjects, read-out: Tmax range): 3 to 20 h
AUC(0-inf) [1, 6]: 972 ± 361 ng·h/mL
CL/F [1, 6]: 5.83 mL/min/kg
Vd/F [1, 6]: 0.6 ± 0.17 L/kg
half-life [1, 6]: 1.3 ± 0.5 h
Cmax ([1]; both sexes, human, plasma, po, Fast, all subjects, single oral dose, mean ± SD, read-out: Cmax): 556 ± 176 ng/mL
Tmax ([1]; both sexes, human, plasma, po, Fast, all subjects, single oral dose, mean ± SD, read-out: Tmax): 3.7 ± 0.9 h
AUC(0-inf) [1, 7]: 1050 ± 382 ng·h/mL
CL/F [1, 7]: 5.67 mL/min/kg
Vd/F [1, 7]: 0.91 ± 0.45 L/kg
half-life [1, 7]: 2.2 ± 1.3 h
Tmax ([1]; both sexes, human, plasma, po, Fed (high-fat breakfast), all subjects, single oral dose, mean ± SD, read-out: Tmax): 7.2 ± 2.6 h
difference in AUC between men and women ([1]; effect of sex (CYP2C19*1/*1 subjects, fed conditions)): around 5%
Cmax higher under fed conditions ([1]; fed vs fasting, all subjects): 21%
Delay of mean Tmax (absorption) by food ([1]; fed vs fasting, all subjects): about 3.5 h
half-life higher under fed conditions ([1]; fed vs fasting, all subjects): 66%
Delay of Tmax by food ([1]; fed vs fasting, only subjects with CYP2C19*1/*1): 5.2 h
AUC(0-inf) [1, 8]: 932 ± 172 ng·h/mL
CL/F [1, 8]: 6.83 mL/min/kg
Vd/F [1, 8]: 0.61 ± 0.12 L/kg
half-life [1, 8]: 1.1 ± 0.2 h
Cmax ([1]; female, human, plasma, oral, only CYP2C19*1/*1 subjects, Fast, women, mean ± SD, read-out: Cmax): 560 ± 136 ng/mL
Tmax ([1]; female, human, plasma, oral, only CYP2C19*1/*1 subjects, Fast, women, mean ± SD, read-out: Tmax): 3.8 ± 0.7 h
AUC(0-inf) [1, 9]: 944 ± 470 ng·h/mL
CL/F [1, 9]: 7.5 mL/min/kg
Vd/F [1, 9]: 0.85 ± 0.32 L/kg
half-life [1, 9]: 1.5 ± 0.9 h
Cmax ([1]; female, human, plasma, oral, only CYP2C19*1/*1 subjects, Fed, women, mean ± SD, read-out: Cmax): 634 ± 221 ng/mL
Tmax ([1]; female, human, plasma, oral, only CYP2C19*1/*1 subjects, Fed, women, mean ± SD, read-out: Tmax): 8.2 ± 0.6 h
AUC(0-inf) [1, 10]: 1120 ± 361 ng·h/mL
CL/F [1, 10]: 5.83 mL/min/kg
Vd/F [1, 10]: 0.65 ± 0.2 L/kg
half-life [1, 10]: 1.4 ± 0.5 h
Cmax ([1]; female, human, plasma, po, Fast, women, single oral dose, mean ± SD, read-out: Cmax): 638 ± 177 ng/mL
Tmax ([1]; female, human, plasma, po, Fast, women, single oral dose, mean ± SD, read-out: Tmax): 3.7 ± 0.9 h
AUC(0-inf) [1, 11]: 1050 ± 420 ng·h/mL
CL/F [1, 11]: 6.33 mL/min/kg
Vd/F [1, 11]: 0.92 ± 0.37 L/kg
half-life [1, 11]: 2 ± 1.3 h
Cmax ([1]; female, human, plasma, po, Fed, women, single oral dose, mean ± SD, read-out: Cmax): 728 ± 284 ng/mL
Tmax ([1]; female, human, plasma, po, Fed, women, single oral dose, mean ± SD, read-out: Tmax): 7.6 ± 2 h
AUC(0-inf) [1, 12]: 870 ± 296 ng·h/mL
CL/F [1, 12]: 5.5 mL/min/kg
Vd/F [1, 12]: 0.59 ± 0.1 L/kg
half-life [1, 12]: 1.5 ± 0.7 h
Cmax ([1]; male, human, plasma, oral, only CYP2C19*1/*1 subjects, Fast, men, mean ± SD, read-out: Cmax): 512 ± 147 ng/mL
Tmax ([1]; male, human, plasma, oral, only CYP2C19*1/*1 subjects, Fast, men, mean ± SD, read-out: Tmax): 3.9 ± 1 h
AUC(0-inf) [1, 13]: 1000 ± 323 ng·h/mL
CL/F [1, 13]: 5 mL/min/kg
Vd/F [1, 13]: 1.02 ± 0.39 L/kg
half-life [1, 13]: 2.5 ± 0.7 h
Cmax ([1]; male, human, plasma, oral, only CYP2C19*1/*1 subjects, Fed, men, mean ± SD, read-out: Cmax): 572 ± 215 ng/mL
Tmax ([1]; male, human, plasma, oral, only CYP2C19*1/*1 subjects, Fed, men, mean ± SD, read-out: Tmax): 10.3 ± 5.1 h
AUC(0-inf) [1, 14]: 836 ± 313 ng·h/mL
CL/F [1, 14]: 5.83 mL/min/kg
Vd/F [1, 14]: 0.55 ± 0.11 L/kg
half-life [1, 14]: 1.2 ± 0.5 h
Cmax ([1]; male, human, plasma, po, Fast, men, single oral dose, mean ± SD, read-out: Cmax): 479 ± 140 ng/mL
Tmax ([1]; male, human, plasma, po, Fast, men, single oral dose, mean ± SD, read-out: Tmax): 3.6 ± 0.9 h
AUC(0-inf) [1, 15]: 1050 ± 361 ng·h/mL
CL/F [1, 15]: 5.17 mL/min/kg
Vd/F [1, 15]: 0.91 ± 0.52 L/kg
half-life [1, 15]: 2.3 ± 1.3 h
Cmax ([1]; male, human, plasma, po, Fed, men, single oral dose, mean ± SD, read-out: Cmax): 635 ± 145 ng/mL
Tmax ([1]; male, human, plasma, po, Fed, men, single oral dose, mean ± SD, read-out: Tmax): 6.9 ± 3 h
Ke ([1]; only CYP2C19*1/*1 subjects, Fast, men and women, mean ± SD): 0.63 ± 0.20
Ke ([1]; only CYP2C19*1/*1 subjects, Fast, men, mean ± SD): 0.57 ± 0.25
Ke ([1]; only CYP2C19*1/*1 subjects, Fast, women, mean ± SD): 0.68 ± 0.13
Ke ([1]; only CYP2C19*1/*1 subjects, Fed, men and women, mean ± SD): 0.45 ± 0.23
Ke ([1]; only CYP2C19*1/*1 subjects, Fed, men, mean ± SD): 0.30 ± 0.11
Ke ([1]; only CYP2C19*1/*1 subjects, Fed, women, mean ± SD): 0.57 ± 0.25
SMILES: COCCCOc1ccnc(C[S+]([O-])c2nc3ccccc3[nH]2)c1C (centres unmarked) [Rabeprazole, rabeprazole]
influence of co-ingestion of food on bioavailability [2]: not influenced
